A short description of data set [1]: Example 12 cat probe formulation study and pharmacokinetic analysis. It counts as in vivo, cats. The following applies: for peak in serum concentration of capromorelin / time post administration of peak serum concentration: Day 0. On the procedure:
Similar to some of the other pharmacokinetic analyses conducted in dogs and cats, an additional pharmacokinetic study was conducted in cats to assess capromorelin formulations that allow sufficient drug to circulate to produce appetite stimulation and to define the capromorelin pharmacokinetic profile in cats. Briefly, twelve cats were randomized into Group 1 (six cats) and Group 2 (six cats). Group 1 received an intravenous formulation that included 0.75 mg/kg of capromorelin dissolved in sterile water and Group 2 received a previously tested formulation via oral gavage. Food consumption was determined daily for all cats. Specifically, animals were offered feed at approximately 11:00 AM, with the removal of feed at approximately 3:00 PM. Upon removal of feed, the amount consumed was calculated. […] Initially, the cats were given a seven day acclimation period to adjust to the experimental conditions and feed provided. After the acclimation period, on Day 0, all animals in Group 1 received an intravenous injection of the composition containing a dose of 0.75 mg/kg of capromorelin. On Day 0, the animals in Group 2 received an oral administration of the formulation via gavage at a dose of 3 mg/kg of capromorelin. On Day 0, serum samples were taken from the Group 1 animals at time 0 (pre-administration) and 5 minutes, 10 minutes, 30 minutes, 1 h, 2 h, 4 h, 6 h, 8 h, and 12 h post administration and serum samples were also taken from the Group 2 animals at time 0 (per-administration) and 15 minutes, 30 minutes, 45 minutes, 1 h, 2 h, 4 h, 6 h, 8 h, and 12 h post administration.

Data set [2] is described as follows: Example 13 cat compromised kidney study: body weight and diet consumption. The format is in vivo, cats with compromised kidney function. The conditions noted are these: subcutaneous 2 mg/kg daily for 14 days. As to the method:
The following study was undertaken to assess multiple points. First, the following experiments were conducted to determine if a formulation of capromorelin, when administered either intravenously or subcutaneously, can stimulate appetite in cats with compromised kidney function. Second, the following experiments were conducted to assess the pharmacokinetic profile of capromorelin in the serum of cats with compromised kidney function. Finally, the following experiments were conducted to determine if capromorelin accumulates in the serum after 14 days of treatment that is subcutaneously administered.
Sixteen cats with compromised kidney function were acclimatized for the following study. Animals assigned to Group 1 (n=6) received an intravenous administration of a capromorelin formulation (i.e., capromorelin in sterile water) at a dose of 0.75 mg/kg on Day 0 of the experiment. Animals assigned to Group 2 (n=6) received a subcutaneous administration of a capromorelin formulation (2.1% w/v capromorelin, 1% w/v benzyl alcohol, and citrate buffer) daily for 14 days at a dose of 2 mg/kg. Animals assigned to Group 3 (n=4) served as untreated controls. […] Diet consumption was also monitored on study days −7 until day 13 for the animals in Groups 2 and 3 only.

A short description of data set [3]: Example 9: clinical observations / toxicological responses. The conditions noted are these: injection 0.75 or 2 mg/kg, oral 2 or 4 mg/kg, once daily. The format is in vivo. As to the method:
During the seven day study period, on an at least once-daily basis, each of the cats was monitored for clinical observations, mortality, moribundity, body mass, acceptability/palatability, and food consumption. Serum samples were taken to measure capromorelin concentration, IGF-1 concentration, and cortisol concentration. Serum samples were taken on days 1 and 4 immediately prior to dosing (0 minutes) and 30, 60, 90, 120, 240, 360, and/or 480 minutes post dosing. Additional serum samples were taken at 8 AM on Day 7 of the study to assess long-term impact of the active treatments.

Data set [4] relates to cortisol. In words: Example 9: serum cortisol concentration. It counts as in vivo, cats. The following applies: day 4. As to the method: A four-day study was performed to further assess the pharmacokinetics of formulation 8 from Example 3 (i.e., the most “well-accepted” formulation) in cats. Moreover, the administration of formulation 8 was also analyzed to determine if administration of this formulation could induce sustained production of IGF-1 and relatively depressed, mitigated, or lower levels of cortisol. The different capromorelin-dosing regimens were also assessed for the impact on food intake and changes in body mass.
Twenty-four adult cats were divided into one of four treatment groups, with all four groups as active treatment groups. Each of the active treatment groups included 6 cats. The first group received a sterile injection of a capromorelin composition containing a 0.75 mg/kg concentration of capromorelin once per day during the four-day experiment. The second group received a once-daily sterile injection of a capromorelin composition at a concentration of 2 mg/kg. The third group received a once-daily dose of a capromorelin composition at a concentration of 2 mg/kg, via oral gavage. […]
During the seven day study period, on an at least once-daily basis, each of the cats was monitored for clinical observations, mortality, moribundity, body mass, acceptability/palatability, and food consumption. […]

The test system of data set [5] is cortisol. In words: Example 1: serum cortisol concentration. It counts as in vivo, Beagle dogs. The following applies: approximately 0.5 h post treatment, days 1, 2 and 7. As to the method:
A controlled, seven-day study was performed to assess the impact of different capromorelin-dosing regimens on the production of insulin-like growth factor 1 (hereinafter “IGF-1”), growth hormone (hereinafter “GH”), and cortisol. The different capromorelin-dosing regimens were also assessed for the impact on food intake and changes in body mass.
Eighteen adult non-naïve Beagle dogs (nine males and nine females) were divided into one of three treatment groups. Each of the three treatment groups included three males and three females. Group A, which was the control group, was dosed twice per day, via oral gavage, with a vehicle (deionized water alone) and was used as a baseline data point for comparison against the active treatment regimens. Group B comprised an active treatment group that received two treatments per day, via oral gavage, with a capromorelin-containing composition with a concentration of 3 mg/kg capromorelin per treatment. Finally, Group C comprised an active treatment group that received one treatment per day, via oral gavage, with a capromorelin-containing composition with a concentration of 6 mg/kg capromorelin per treatment.
During the ten day study period, on an at least once-daily basis, each of the dogs was monitored for clinical observations, mortality, morbidity, body mass, and food consumption. […]

Setting [6] is: Group 1, intravenous 0.75 mg/kg.

Where two headings read alike, the source gives them in different places.

The source of these data is patent US11090292B2, “Compositions and methods of use of an inappetance-controlling compound” (Aratana Therapeutics, Inc., priority 2012, dated 2021).

Consider `CN1N=C2CCN(C(=O)[C@@H](COCc3ccccc3)NC(=O)C(C)(C)N)C[C@@]2(Cc2ccccc2)C1=O.O=C(O)C(O)C(O)C(=O)O` [capromorelin], for which, in data set [1] (setting [6]), the “peak in serum concentration of capromorelin” value is listed as “around 625 ng/mL” and the “time post administration of peak serum concentration” value is listed as “around 5 minutes”. Besides, in data set [1] (Group 2, oral gavage 3 mg/kg), the “peak in serum concentration of capromorelin” value is “around 150 ng/mL” and the “time post administration of peak serum concentration” value is “around 2 hours”. Further, in data set [1] (cat, serum, Group 1, intravenous 0.75 mg/kg, read-out: clearance of capromorelin), the clearance is ~30 mL/min/kg. In data set [1] (cat, serum, Group 1, intravenous 0.75 mg/kg, read-out: terminal half-life of capromorelin (converted)), the half-life was ~54 min. Moreover, the Cmax in data set [1] (cat, serum, Group 2, oral gavage 3 mg/kg) worked out at 149 ng/mL. The half-life in data set [1] (cat, serum, Group 2, oral gavage 3 mg/kg, read-out: mean-terminal half-life (converted)) is 62.4 min. For the same compound, in data set [2], the “amount of food consumed, Group 2 versus untreated Group 3” value is given as “no significant difference” and the “body weights of Group 2 versus untreated Group 3” value is given as “no significant differences”. Besides, the toxicological responses result in data set [3] is “no toxicological responses were noted”. Besides, in data set [4], the “increases in cortisol serum levels relative to day 1” value is “mitigated on day 4”. Besides, the “cortisol concentrations in the serum relative to deionized water” value in data set [5] is reported as “increased”.

For orientation: clearance means the rate of elimination divided by the concentration. As a reminder, the half-life is the time needed for the level to fall by half in the phase considered. The term Cmax denotes the highest concentration seen after dosing.
